Assay results: patent US9211310B2, “Use of a Chinese medicine composition in preparing medicaments for treating secondary prevention of myocardial infarction” (TASLY PHARMACEUTICAL GROUP CO., LTD, priority 2010, dated 2015)

System: patients after acute myocardial infarction
Assay: TCM symptom score, total and single (chest pain, chest tightness, short breath, fatigue, palpitation, spontaneous perspiration, pale complexion), same clinical trial
Format: in vivo, human
Parameters: total score of TCM symptom, Mean / total score of TCM symptom, Min / total score of TCM symptom, Max / total score of TCM symptom, Md / change of total score of TCM symptom, Mean / change of total score of TCM symptom, Max / change of total score of TCM symptom, Md: scale not given here
Conditions: FAS
Description: 3508 patients who were in accordance with the diagnostic standards of AMI for 28 days to 2 years and differentiated as Qi deficiency and blood stagnation syndrome by TCM were studied. 0.5 g Chinese medicine composition prepared by the method of EXAMPLE 1 (Coded as QSYQ) was administrated half an hour after meal, 3 times per day.
They included the overall survival time, angina pectoris score, TCM symptom score and life quality score, where angina pectoris score, TCM symptom score and life quality score were evaluated at randomization, in 1st, 3rd, 6th, 9th, 12th month after treatment and 18th month after follow-up.
The analysis method referred to the angina pectoris score.

[1] = 1 month after treatment-baseline
[2] = 3 month after treatment-baseline

SMILES: CC(=O)Oc1ccccc1C(=O)O [Control group, aspirine]
- total score of TCM symptom, Max (1 month after treatment): 34.00
- total score of TCM symptom, Md (1 month after treatment): 11.00
- total score of TCM symptom, Mean (1 month after treatment): 11.84
- total score of TCM symptom, Min (1 month after treatment): 0.00
- change of fatigue 0, % of patients [1]: (72.40%)
- change of fatigue 0, number of patients [1]: 1238
- change of fatigue 1, % of patients [1]: (0.06%)
- change of fatigue 1, number of patients [1]: 1
- change of fatigue 2, % of patients [1]: (17.72%)
- change of fatigue 2, number of patients [1]: 303
- change of fatigue 4, % of patients [1]: (2.63%)
- change of fatigue 4, number of patients [1]: 45
- change of fatigue 6, % of patients [1]: (0.76%)
- change of fatigue 6, number of patients [1]: 13
- change of fatigue −2, % of patients [1]: (5.73%)
- change of fatigue −2, number of patients [1]: 98
- change of fatigue −4, % of patients [1]: (0.64%)
- change of fatigue −4, number of patients [1]: 11
- change of fatigue −6, % of patients [1]: (0.06%)
- change of fatigue −6, number of patients [1]: 1
- change of pale complexion 0, number of patients [1]: 1477
- change of pale complexion 0, percent of patients [1]: (86.48%)
- change of pale complexion 1, number of patients [1]: 166
- change of pale complexion 1, percent of patients [1]: (9.72%)
- change of pale complexion −1, number of patients [1]: 65
- change of pale complexion −1, percent of patients [1]: (3.81%)
- change of palpitation 0, number of patients [1]: 1242
- change of palpitation 0, percent of patients [1]: (72.63%)
- change of palpitation 1, number of patients [1]: 334
- change of palpitation 1, percent of patients [1]: (19.53%)
- change of palpitation 2, number of patients [1]: 25
- change of palpitation 2, percent of patients [1]: (1.46%)
- change of palpitation 3, number of patients [1]: 5
- change of palpitation 3, percent of patients [1]: (0.29%)
- change of palpitation −1, number of patients [1]: 103
- change of palpitation −1, percent of patients [1]: (6.02%)
- change of palpitation −2, number of patients [1]: 1
- change of palpitation −2, percent of patients [1]: (0.06%)
- change of palpitation −3, number of patients [1]: 0
- change of palpitation −3, percent of patients [1]: (0.00%)
- change of short breath 0, % of patients [1]: (77.37%)
- change of short breath 0, number of patients [1]: 1323
- change of short breath 2, % of patients [1]: (14.74%)
- change of short breath 2, number of patients [1]: 252
- change of short breath 4, % of patients [1]: (1.75%)
- change of short breath 4, number of patients [1]: 30
- change of short breath 6, % of patients [1]: (0.41%)
- change of short breath 6, number of patients [1]: 7
- change of short breath −2, % of patients [1]: (5.26%)
- change of short breath −2, number of patients [1]: 90
- change of short breath −4, % of patients [1]: (0.47%)
- change of short breath −4, number of patients [1]: 8
- change of short breath −6, % of patients [1]: (0.00%)
- change of short breath −6, number of patients [1]: 0
- change of spontaneous perspiration 0, number of patients [1]: 1249
- change of spontaneous perspiration 0, percent of patients [1]: (73.08%)
- change of spontaneous perspiration 1, number of patients [1]: 279
- change of spontaneous perspiration 1, percent of patients [1]: (16.33%)
- change of spontaneous perspiration 2, number of patients [1]: 51
- change of spontaneous perspiration 2, percent of patients [1]: (2.98%)
- change of spontaneous perspiration 3, number of patients [1]: 16
- change of spontaneous perspiration 3, percent of patients [1]: (0.94%)
- change of spontaneous perspiration −1, number of patients [1]: 94
- change of spontaneous perspiration −1, percent of patients [1]: (5.50%)
- change of spontaneous perspiration −2, number of patients [1]: 17
- change of spontaneous perspiration −2, percent of patients [1]: (0.99%)
- change of spontaneous perspiration −3, number of patients [1]: 3
- change of spontaneous perspiration −3, percent of patients [1]: (0.18%)
- change of total score of TCM symptom, Max [1]: 24.00
- change of total score of TCM symptom, Md [1]: 0.00
- change of total score of TCM symptom, Mean [1]: −1.96
- change of total score of TCM symptom, Min [1]: −33.00
- change of total score of TCM symptom, Max [2]: 19.00
- change of total score of TCM symptom, Md [2]: −2.00
- change of total score of TCM symptom, Mean [2]: −2.91
- change of total score of TCM symptom, Min [2]: −33.00
- distribution of total score of TCM symptom: Medium, number of patients (3 months after treatment): 546
- distribution of total score of TCM symptom: Medium, percentage of patients (3 months after treatment): (33.58%)
- distribution of total score of TCM symptom: Mild, number of patients (3 months after treatment): 1066
- distribution of total score of TCM symptom: Mild, percentage of patients (3 months after treatment): (65.56%)
- distribution of total score of TCM symptom: Severe, number of patients (3 months after treatment): 14
- distribution of total score of TCM symptom: Severe, percentage of patients (3 months after treatment): (0.86%)
- fatigue score 0, % of patients (3 months after treatment): (27.96%)
- fatigue score 0, number of patients (3 months after treatment): 480
- fatigue score 2, % of patients (3 months after treatment): (59.76%)
- fatigue score 2, number of patients (3 months after treatment): 1026
- fatigue score 4, % of patients (3 months after treatment): (11.47%)
- fatigue score 4, number of patients (3 months after treatment): 197
- fatigue score 6, % of patients (3 months after treatment): (0.82%)
- fatigue score 6, number of patients (3 months after treatment): 14
- pale complexion score 0, number of patients (3 months after treatment): 809
- pale complexion score 0, percent of patients (3 months after treatment): (47.12%)
- pale complexion score 1, number of patients (3 months after treatment): 677
- pale complexion score 1, percent of patients (3 months after treatment): (39.43%)
- pale complexion score 2, number of patients (3 months after treatment): 210
- pale complexion score 2, percent of patients (3 months after treatment): (12.23%)
- pale complexion score 3, number of patients (3 months after treatment): 21
- pale complexion score 3, percent of patients (3 months after treatment): (1.22%)
- palpitation score 0, number of patients (3 months after treatment): 480
- palpitation score 0, percent of patients (3 months after treatment): (27.96%)
- palpitation score 2, number of patients (3 months after treatment): 894
- palpitation score 2, percent of patients (3 months after treatment): (52.07%)
- palpitation score 4, number of patients (3 months after treatment): 310
- palpitation score 4, percent of patients (3 months after treatment): (18.05%)
- palpitation score 6, number of patients (3 months after treatment): 33
- palpitation score 6, percent of patients (3 months after treatment): (1.92%)
- short breath score 0, % of patients (3 months after treatment): (21.78%)
- short breath score 0, number of patients (3 months after treatment): 374
- short breath score 3, % of patients (3 months after treatment): (58.94%)
- short breath score 3, number of patients (3 months after treatment): 1012
- short breath score 6, % of patients (3 months after treatment): (18.52%)
- short breath score 6, number of patients (3 months after treatment): 318
- short breath score 9, % of patients (3 months after treatment): (0.76%)
- short breath score 9, number of patients (3 months after treatment): 13
- spontaneous perspiration score 0, number of patients (3 months after treatment): 667
- spontaneous perspiration score 0, percent of patients (3 months after treatment): (38.85%)
- spontaneous perspiration score 1, number of patients (3 months after treatment): 846
- spontaneous perspiration score 1, percent of patients (3 months after treatment): (49.27%)
- spontaneous perspiration score 2, number of patients (3 months after treatment): 190
- spontaneous perspiration score 2, percent of patients (3 months after treatment): (11.07%)
- spontaneous perspiration score 3, number of patients (3 months after treatment): 14
- spontaneous perspiration score 3, percent of patients (3 months after treatment): (0.82%)
- total score of TCM symptom, Max (3 months after treatment): 33.00
